The record followed here is PubChem BioAssay AID330 (DTP/NCI, 2004).

Where “and” joins values, the source holds several entries; their conditions need not be identical. Equal values may be shown once. Toxic doses and inconclusive results are not listed.

The subject of this assay is P388 leukemia ip, CD2F1 mice, survival T/C. Description: NCI In Vivo Anticancer Drug Screen. Data for tumor model P388 Leukemia (intraperitoneal) in CD2F1 (CDF1) mice. Particulars: endpoint: median survival time, higher = longer survival. In a few lines: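 Mice carrying the transplanted tumor received test compound or vehicle. Survival was recorded in each group, and the value is the treated-group measurement divided by that of the vehicle-treated control group.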

Where [1] appears, read: dose: 50.0 mg/kg/injection, schedule: Q01DX005 (ip), vehicle: saline with Tween-80.
[2] abbreviates: dose: 100.0 mg/kg/injection, schedule: Q01DX005 (ip), vehicle: saline with Tween-80.
[3] abbreviates: dose: 200.0 mg/kg/injection, schedule: Q01DX005 (ip), vehicle: saline with Tween-80.
Where [4] appears, read: dose: 50.0 mg/kg/injection, schedule: Q01DX005 (ip), vehicle: Klucel (hydroxypropylcellulose) (HPC).
[5] abbreviates: dose: 100.0 mg/kg/injection, schedule: Q01DX005 (ip), vehicle: Klucel (hydroxypropylcellulose) (HPC).
The mark [6] stands for this setting: dose: 50.0 mg/kg/injection, schedule: Q01DX009 (ip), vehicle: Klucel (hydroxypropylcellulose) (HPC).
Setting [7] is: dose: 100.0 mg/kg/injection, schedule: Q01DX009 (ip), vehicle: Klucel (hydroxypropylcellulose) (HPC).
The mark [8] stands for this setting: dose: 200.0 mg/kg/injection, schedule: Q01DX009 (ip), vehicle: Klucel (hydroxypropylcellulose) (HPC).
[9] abbreviates: dose: 200.0 mg/kg/injection, schedule: Q01DX005 (ip), vehicle: Klucel (hydroxypropylcellulose) (HPC).
Where [10] appears, read: dose: 100.0 mg/kg/injection, schedule: Q04DX003 (ip), vehicle: saline with Tween-80.
Setting [11] is: dose: 200.0 mg/kg/injection, schedule: Q04DX003 (ip), vehicle: saline with Tween-80.
Where [12] appears, read: dose: 400.0 mg/kg/injection, schedule: Q04DX003 (ip), vehicle: saline with Tween-80.
Where [13] appears, read: dose: 50.0 mg/kg/injection, schedule: Q01DX009 (ip), vehicle: saline with Tween-80.
[14] abbreviates: dose: 100.0 mg/kg/injection, schedule: Q01DX009 (ip), vehicle: saline with Tween-80.
Setting [15] is: dose: 200.0 mg/kg/injection, schedule: Q01DX009 (ip), vehicle: saline with Tween-80.
[16] abbreviates: dose: 400.0 mg/kg/injection, schedule: Q01DX009 (ip), vehicle: saline with Tween-80.

Turning to `Nc1ccc(Br)cc1N`, the T/C was 111 % of control (dose: 50.0 mg/kg/injection, schedule: Q01DX009 (ip), vehicle: distilled water + Tween-80 + alcohol); 100 % of control (dose: 50.0 mg/kg/injection, schedule: Q01DX009 (ip), vehicle: other); 95 % of control (dose: 50.0 mg/kg/injection, schedule: Q01DX009 (ip), vehicle: saline + Tween-80 + alcohol); 120 % of control (dose: 100.0 mg/kg/injection, schedule: Q01DX009 (ip), vehicle: distilled water + Tween-80 + alcohol); 98 % of control (dose: 100.0 mg/kg/injection, schedule: Q01DX009 (ip), vehicle: other); 107 % of control (dose: 100.0 mg/kg/injection, schedule: Q01DX009 (ip), vehicle: saline + Tween-80 + alcohol). In addition, the T/C (dose: 200.0 mg/kg/injection, schedule: Q01DX009 (ip), vehicle: distilled water + Tween-80 + alcohol) was 150 % of control; the T/C (dose: 200.0 mg/kg/injection, schedule: Q01DX009 (ip), vehicle: other) is 106 % of control; the T/C (dose: 200.0 mg/kg/injection, schedule: Q01DX009 (ip), vehicle: saline + Tween-80 + alcohol) is 99 % of control.
In the case of `OCC1OC(n2cnc3c(I)ncnc32)C(O)C1O` (stereo not drawn), the T/C by setting is: under setting [1], 100 % of control; under setting [2], 103 % of control; under setting [3], 101 % of control.
Take `Cc1cnc(I)[nH]1`: the T/C runs as follows: (dose: 100.0 mg/kg/injection, schedule: Q01DX001 (ip), vehicle: saline) 102 % of control; (dose: 100.0 mg/kg/injection, schedule: Q04DX003 (ip), vehicle: saline) 107 % of control; (dose: 200.0 mg/kg/injection, schedule: Q01DX001 (ip), vehicle: saline) 105 % of control; (dose: 200.0 mg/kg/injection, schedule: Q04DX003 (ip), vehicle: saline) 112 % of control; (dose: 400.0 mg/kg/injection, schedule: Q04DX003 (ip), vehicle: saline) 92 % of control.
Turning to `C/C=C/c1cnc2nc(N)nc(N)c2n1`, the T/C is 99 % of control (dose: 100.0 mg/kg/injection, schedule: Q04DX002 (ip), vehicle: saline with Tween-80); 104 % of control (dose: 200.0 mg/kg/injection, schedule: Q04DX002 (ip), vehicle: saline with Tween-80); 107 % of control (dose: 400.0 mg/kg/injection, schedule: Q04DX002 (ip), vehicle: saline with Tween-80).
`Cn1c(=O)c2c(=O)n3ccccc3nc2n(C)c1=O`: the T/C runs as follows: under setting [4], 104 % of control; under setting [5], 96 % of control.
With `COc1ccc(NC(=S)Nc2ccc(S(=O)(=O)N3CCCCC3)cc2)cc1`, the T/C was 94 % of control under setting [6]; 94 % of control and 95 % of control under setting [7]; 98 % of control under setting [8].
`CC(C)(C#N)OC(=O)c1cccc(C(=O)OC(C)(C)C#N)c1Sc1ccccc1`: the T/C is 99 % of control (dose: 25.0 mg/kg/injection, schedule: Q01DX001 (ip), vehicle: other); 105 % of control (dose: 50.0 mg/kg/injection, schedule: Q01DX001 (ip), vehicle: other); 98 % of control and 105 % of control (dose: 100.0 mg/kg/injection, schedule: Q01DX001 (ip), vehicle: other).
With `CCc1c2c(cc3c1[nH]c1ccccc13)C(=O)NC2=O`, the T/C by setting is: (dose: 25.0 mg/kg/injection, schedule: Q01DX005 (ip), vehicle: Klucel (hydroxypropylcellulose) (HPC)) 99 % of control; under setting [4], 90 % of control and 92 % of control; under setting [5], 97 % of control; under setting [9], 94 % of control.
`COc1ccc2[nH]c(-c3ccccc3)cc2c1`: the T/C is 105 % of control under setting [10], 110 % of control under setting [11] and 100 % of control under setting [12].
Regarding `CC(CCc1ccccc1)NC(C)C(O)c1ccc(O)cc1` (stereo not drawn), the T/C (dose: 25.0 mg/kg/injection, schedule: Q01DX009 (ip), vehicle: saline with Tween-80) was 100 % of control; the T/C under setting [13] is 100 % of control; the T/C under setting [14] was 90 % of control.
As for `Cc1ccc(NC(=O)C(c2ccccc2)c2ccccc2)cc1`, the T/C is 98 % of control under setting [10], 97 % of control under setting [11] and 92 % of control under setting [12].
Turning to `Cn1c2cc([N+](=O)[O-])ccc2c(=O)c2c(O)cc3c(c21)C=CC(C)(C)O3`, the T/C (dose: 100.0 mg/kg/injection, schedule: Q01DX001 (ip), vehicle: saline with Tween-80) is 100 % of control and the T/C (dose: 200.0 mg/kg/injection, schedule: Q01DX001 (ip), vehicle: saline with Tween-80) was 103 % of control.
`CN(C)c1ccc(N=C(C#N)c2ccc(Cl)cc2)cc1`: the T/C was 99 % of control (dose: 50.0 mg/kg/injection, schedule: Q04DX003 (ip), vehicle: Klucel (hydroxypropylcellulose) (HPC)); 96 % of control (dose: 100.0 mg/kg/injection, schedule: Q04DX003 (ip), vehicle: Klucel (hydroxypropylcellulose) (HPC)); 103 % of control (dose: 200.0 mg/kg/injection, schedule: Q04DX003 (ip), vehicle: Klucel (hydroxypropylcellulose) (HPC)); 96 % of control (dose: 400.0 mg/kg/injection, schedule: Q04DX003 (ip), vehicle: Klucel (hydroxypropylcellulose) (HPC)).
Turning to `CCOc1cccc2c1CCC(O[Si](C)(C)C(C)(C)C)C2` (stereo not drawn), the T/C reads like this: under setting [1], 94 % of control; under setting [2], 95 % of control; under setting [3], 96 % of control.
Regarding `COc1ccc2ncc(CO)c(CO)c2c1`, the T/C under setting [9] is 100 % of control.
`CC(=O)[C@H]1CC[C@H]2[C@@H]3C[C@H](C)C4=CC(=O)CC[C@]4(C)[C@H]3C(=O)C[C@]12C`: the T/C by setting is: under setting [14], 100 % of control; under setting [15], 109 % of control; under setting [16], 104 % of control.
With `CCCCCCC(=O)C(=O)c1ccc(O)c(C)c1O`, the T/C was 89 % of control under setting [6], 93 % of control under setting [7] and 93 % of control under setting [8].
On to `CC(C)(C)c1ccc(NC(=O)Oc2ccccc2)cc1`, for which the T/C is 102 % of control under setting [6], 105 % of control under setting [7] and 102 % of control under setting [8].
As to `CCCC(C)C1(CC(C)O)C(=O)NC(=O)NC1=O` (stereo not drawn), the T/C was 104 % of control under setting [6], 104 % of control under setting [7] and 100 % of control under setting [8].
As for `ClCC#CCCl`, the T/C was 102 % of control (dose: 6.25 mg/kg/injection, schedule: Q01DX009 (ip), vehicle: saline with Tween-80) and 99 % of control (dose: 12.5 mg/kg/injection, schedule: Q01DX009 (ip), vehicle: saline with Tween-80).
As to `CC(Cl)CNCC(C)(C)C` (stereo not drawn), the T/C by setting is: (dose: 50.0 mg/kg/injection, schedule: Q01DX005 (ip), vehicle: saline) 100 % of control; (dose: 100.0 mg/kg/injection, schedule: Q01DX005 (ip), vehicle: saline) 99 % of control.
Turning to `CCOC(=O)CC1(O)CSC(=C(C(=O)OCC)C(=O)OCC)N1c1ccccc1` (stereo not drawn), the T/C by setting is: under setting [1], 98 % of control; under setting [2], 91 % of control; under setting [3], 102 % of control.
With `O=c1nc2n(c3nccnc13)CCS2`, the T/C by setting is: (dose: 12.5 mg/kg/injection, schedule: Q01DX009 (ip), vehicle: saline) 111 % of control; (dose: 25.0 mg/kg/injection, schedule: Q01DX009 (ip), vehicle: saline) 104 % of control; (dose: 50.0 mg/kg/injection, schedule: Q01DX009 (ip), vehicle: saline) 100 % of control.
As to `CCOC(=O)C(=O)Nc1[nH]c(C)c(C)c1C#N`, the T/C is, setting by setting: (dose: 50.0 mg/kg/injection, schedule: Q01DX009 (ip), vehicle: saline + alcohol) 91 % of control; (dose: 100.0 mg/kg/injection, schedule: Q01DX009 (ip), vehicle: saline + alcohol) 96 % of control; (dose: 200.0 mg/kg/injection, schedule: Q01DX009 (ip), vehicle: saline + alcohol) 89 % of control.
For `OC1(c2ccccc2)CN(Cc2ccccc2)CC(c2ccccc2)O1` (stereo not drawn), the T/C is 98 % of control under setting [14], 100 % of control under setting [15] and 106 % of control under setting [16].
Regarding `Cc1ccc(S(=O)(=O)Nc2cc(C)cc(CCNC=O)c2C)cc1`, the T/C under setting [13] was 104 % of control, the T/C under setting [14] was 94 % of control, the T/C under setting [15] was 99 % of control and the T/C under setting [16] is 94 % of control.
